# pIC50: −log10 of the molar value.
# Experiments:
# [1] = biological target: BTK enzyme (recombinant full-length BTK, hBTK) (Homo sapiens (Human), UniProt Q06187); test: Btk enzyme activity assay, LANCE TR-FRET; assay type: biochemical; conditions: 50 pM hBTK, 2 μM biotin-A5-peptide, 25 μM ATP; 60 minute compound & enzyme incubation; read-out: BTK binding IC50
# Protocol: Btk Enzyme Activity Assay Methods
# BTK enzymatic activity was determined with the LANCE (Lanthanide Chelate Excite) TR-FRET (Time-resolved fluorescence resonance energy transfer) assay. […] After 60 minutes incubation with detection reagents, reaction plates were read on a PerkinElmer EnVision plate reader using standard TR-FRET protocol.
# HeLa cells = test: [3H] Adenosine uptake assay; assay type: cell-based; conditions: Homo sapiens, HeLa, accumulation of tritiated adenosine into HeLa cells; compound concentration range 10 μM to 0.032 nM; read-out: ADU inhibition IC50 (adenosine uptake inhibition potency)
# Protocol: Compounds are also screen in an adenosine uptake functional cellular assay using the protocol described below:
# [^3H] Adenosine Uptake Assay Methods
# Adenosine uptake activity was determined by monitoring the accumulation of tritiated adenosine into HeLa cells (ATCC catalog #CCL-2) using a PMT-based radiometric detection instrument. […] These cells were incubated overnight at 37° C. in a humidified atmosphere with 5% (v/v) CO2. After this time the growth medium was removed and replaced with 40 μL assay medium comprising: Hanks balanced salts solution (HBSS; Thermo Fisher Catalog #SH30268.01)+5% (v/v) FBS. Compound stock solutions in DMSO were diluted in assay medium to 2.5× final compound concentration maintaining a constant DMSO concentration of 0.25% (v/v). 40 μL of compound in assay medium was dispensed into individual wells of the Cytostar-T plates and the plates were incubated for 30 minutes under ambient laboratory conditions. Following this incubation, 20 μL of 500 nM[^3H] adenosine (American Radiolabeled Chemicals Inc. Catalog #ART0287) in assay medium was added and incubated for a further 60 minutes under ambient laboratory conditions. The amount of radiolabel accumulation was then determined using a Perkin Elmer Topcount NXT microplate reader. In brief, HeLa cells adhere to the bottom of the Cytostar-T plate, uptake of [^3H]adenosine into these cells brings the radiolabel into sufficient proximity to excite the scintillant in the base of the plates. These events are captured by single PMT, time-resolved coincidence counting. IC50 values were determined by 4 parameter robust fit of counts per second values vs. (Log10) compound concentrations.
# Sequence of BTK enzyme (recombinant full-length BTK, hBTK) (Q06187 whole entry): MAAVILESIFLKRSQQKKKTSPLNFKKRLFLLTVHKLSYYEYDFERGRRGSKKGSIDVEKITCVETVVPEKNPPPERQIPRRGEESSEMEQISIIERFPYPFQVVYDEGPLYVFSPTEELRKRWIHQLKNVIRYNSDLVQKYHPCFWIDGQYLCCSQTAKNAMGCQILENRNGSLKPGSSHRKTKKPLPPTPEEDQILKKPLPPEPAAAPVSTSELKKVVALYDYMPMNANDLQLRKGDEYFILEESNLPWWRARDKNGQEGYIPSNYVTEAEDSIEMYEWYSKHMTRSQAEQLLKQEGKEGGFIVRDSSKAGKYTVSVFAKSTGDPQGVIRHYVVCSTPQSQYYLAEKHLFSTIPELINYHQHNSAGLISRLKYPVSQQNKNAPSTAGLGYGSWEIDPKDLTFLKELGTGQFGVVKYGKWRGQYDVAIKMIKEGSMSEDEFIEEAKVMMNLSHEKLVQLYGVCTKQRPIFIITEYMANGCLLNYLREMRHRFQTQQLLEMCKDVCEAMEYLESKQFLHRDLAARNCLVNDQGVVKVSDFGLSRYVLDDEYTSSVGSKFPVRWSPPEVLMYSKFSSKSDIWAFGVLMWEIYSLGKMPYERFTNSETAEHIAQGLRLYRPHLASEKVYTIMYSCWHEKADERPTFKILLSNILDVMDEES
SMILES,pIC50 [1],pIC50 (HeLa cells)
"Nc1nccn2c([C@@H]3CCCN(C(=O)C4CC4C(=O)O)C3)nc(-c3ccc(C(=O)Nc4cc(C(F)(F)F)ccn4)cc3)c12 (stereo partly drawn) [Example 150, 2-({(3R)-3-[8-amino-1-(4-{[4-(trifluoromethyl)pyridin-2-yl]carbamoyl}phenyl)imidazo[1,5-a]pyrazin-3-yl]piperidin-1-yl}carbonyl) cyclopropane-carboxylic acid]",8.89,5.18
"Nc1nccn2c([C@H]3CN(C4CC(C(=O)O)C4)CCO3)nc(-c3ccc(C(=O)Nc4cc(C(F)(F)F)ccn4)cc3)c12 (stereo partly drawn) [Example 179, 3-{(2R)-2-[8-amino-1-(4-{[4-(trifluoromethyl)pyridin-2-yl]carbamoyl}phenyl)imidazo [1,5-a]pyrazin-3-yl]morpholin-4-yl}cyclobutanecarboxylic acid]",9.03,5.32
"Nc1nccn2c(-c3cccc(C(=O)O)c3)nc(-c3ccc(C(=O)Nc4cc(C(F)(F)F)ccn4)cc3)c12 [Example 23, 3-(8-amino-1-(4-((4-(trifluoromethyl)pyridin-2-yl)carbamoyl)phenyl)imidazo[1,5-a]pyrazin-3-yl)benzoic acid]",9.25,5.00
"Nc1nccn2c([C@@H]3C[C@@H]3C(=O)O)nc(-c3ccc(C(=O)Nc4cc(C(F)(F)F)ccn4)cc3)c12 [Example 167, (1S,2R)-2-[8-amino-1-(4-{[4-(trifluoromethyl)pyridin-2-yl]carbamoyl}phenyl)imidazo[1,5-a]pyrazin-3-yl]cyclopropane-carboxylic acid]",6.12,5.00
"C[C@H]1CO[C@@H](c2nc(-c3ccc(C(=O)Nc4cc(C(F)F)ccn4)cc3F)c3c(N)nccn23)CN1[C@H]1CC[C@](C)(C(=O)O)CC1 [Example 208, trans-4-{(2R,5S)-2-[8-amino-1-(4-{[4-(difluoromethyl)pyridin-2-yl]carbamoyl}-2-fluorophenyl)imidazo[1,5-a]pyrazin-3-yl]-5-methylmorpholin-4-yl}-1-methylcyclohexanecarboxylic acid]",6.03,5.00
"Nc1nccn2c([C@H]3CC[C@@H](CC(=O)O)C3)nc(-c3ccc(C(=O)Nc4cc(C(F)(F)F)ccn4)cc3)c12 [Example 50, {(1R,3S)-3-[8-amino-1-(4-{[4-(trifluoromethyl)pyridin-2-yl]carbamoyl}phenyl)imidazo[1,5-a]pyrazin-3-yl]cyclopentyl}acetic acid]",9.59,5.43
"Nc1nccn2c([C@H]3CC[C@@H](C(=O)N4CCC[C@@H]4C(=O)O)C3)nc(-c3ccc(C(=O)Nc4cc(C(F)(F)F)ccn4)cc3)c12 [Example 18, 1-({(1R,3S)-3-[8-amino-1-(4-{[4-(trifluoromethyl)pyridin-2-yl]carbamoyl}phenyl)imidazo[1,5-a]pyrazin-3-yl]cyclopentyl}carbonyl)-D-proline]",8.59,5.00
"C[C@H]1CO[C@@H](c2nc(-c3ccc(C(=O)Nc4cc(C(F)(F)F)ccn4)cc3)c3c(N)nccn23)CN1C(=O)C12CC(C(=O)O)(C1)C2 [Example 175, 3-((2R,5S)-2-(8-amino-1-(4-((4-(trifluoromethyl)pyridin-2-yl)carbamoyl)phenyl)imidazo[1,5-a]pyrazin-3-yl)-5-methylmorpholine-4-carbonyl)bicyclo[1.1.1]pentane-1-carboxylic acid]",9.43,5.00

# The next lines start with the values.
pIC50 [1],pIC50 (HeLa cells),SMILES
7.60,5.00,"CCOc1cc(C(=O)Nc2cc(C(F)(F)F)ccn2)ccc1-c1nc([C@H]2CC[C@@](C(=O)O)(C(C)C)C2)n2c(Cl)cnc(N)c12 [Example 111, (1S,3S)-3-[8-amino-5-chloro-1-(2-ethoxy-4-{[4-(trifluoromethyl)pyridin-2-yl]carbamoyl}phenyl)imidazo[1,5-a]pyrazin-3-yl]-1-(1-methylethyl) cyclopentane-carboxylic acid]"
8.68,5.32,"CCOc1cc(C(=O)Nc2cc(C(F)(F)F)ccn2)ccc1-c1nc([C@H]2CC[C@](C(=O)O)(C(C)C)C2)n2c(Cl)cnc(N)c12 [Example 110, (1R,3S)-3-[8-amino-5-chloro-1-(2-ethoxy-4-{[4-(trifluoromethyl)pyridin-2-yl]carbamoyl}phenyl)imidazo[1,5-a]pyrazin-3-yl]-1-(1-methylethyl) cyclopentane-carboxylic acid]"
7.56,5.00,"CCOc1cc(C(=O)Nc2cc(C(F)(F)F)n(C)n2)ccc1-c1nc([C@H]2CC[C@](C(=O)O)(C(C)C)C2)n2ccnc(N)c12 [Example 58, (1R,3S)-3-[8-amino-1-(2-ethoxy-4-{[1-methyl-5-(trifluoromethyl)-1H-pyrazol-3-yl]carbamoyl}phenyl)imidazo[1,5-a]pyrazin-3-yl]-1-(1-methylethyl) cyclopentane-carboxylic acid]"
9.33,5.00,"CCOc1cc(C(=O)Nc2cc(C(F)(F)F)ccn2)ccc1-c1nc(C23CCC(C(=O)O)(CC2(F)F)C(F)(F)C3)n2ccnc(N)c12 (stereo not shown) [Example 66, 4-[8-amino-1-(2-ethoxy-4-{[4-(trifluoromethyl)pyridin-2-yl]carbamoyl}phenyl)imidazo[1,5-a]pyrazin-3-yl]-2,2,5,5-tetrafluorobicyclo [2.2.2]octane-1-carboxylic acid]"
9.30,5.56,"CC1(C(=O)O)CCC(C)(c2nc(-c3ccc(C(=O)Nc4cc(C(F)(F)F)ccn4)cc3F)c3c(N)nccn23)CC1 (stereo not shown) [Example 134, 4-[8-amino-1-(2-fluoro-4-{[4-(trifluoromethyl)pyridin-2-yl]carbamoyl}phenyl)imidazo[1,5-a]pyrazin-3-yl]-1,4-dimethylcyclohexane-carboxylic acid]"
8.34,5.41,"CC1(C)[C@@H](c2nc(-c3ccc(C(=O)Nc4cc(C(F)(F)F)ccn4)cc3)c3c(N)nccn23)CC[C@@]1(C)C(=O)O [Example 77, (1R,3S)-3-[8-amino-1-(4-{[4-(trifluoromethyl)pyridin-2-yl]carbamoyl}phenyl)imidazo[1,5-a]pyrazin-3-yl]-1,2,2-trimethylcyclopentane carboxylic acid]"
9.25,6.13,"COc1cc(C(=O)Nc2cc(C(F)(F)F)ccn2)ccc1-c1nc(C23C4C5C2C2C3C4C52C(=O)O)n2ccnc(N)c12 (stereo not shown) [Example 75, 4-(8-amino-1-(2-methoxy-4-((4-(trifluoromethyl)pyridin-2-yl)carbamoyl)phenyl)imidazo[1,5-a]pyrazin-3-yl)cubane-1-carboxylic acid]"
9.24,5.07,"CCOc1cc(C(=O)Nc2cc(C(F)(F)F)ccn2)ccc1-c1nc([C@H]2CC[C@@](C(=O)O)(C(C)C)C2)n2ccnc(N)c12 [Example 63, (1S,3S)-3-[8-amino-1-(2-ethoxy-4-{[4-(trifluoromethyl)pyridin-2-yl]carbamoyl}phenyl)imidazo[1,5-a]pyrazin-3-yl]-1-(1-methylethyl) cyclopentane-carboxylic acid]"
9.43,5.97,"CC1(C)[C@H](c2nc(-c3ccc(C(=O)Nc4cc(C(F)(F)F)ccn4)cc3)c3c(N)nccn23)CC[C@]1(C)C(=O)O [Example 69, (1S,3R)-3-[8-amino-1-(4-{[4-(trifluoromethyl)pyridin-2-yl]carbamoyl}phenyl)imidazo[1,5-a]pyrazin-3-yl]-1,2,2-trimethylcyclopentane carboxylic acid]"

# — US10087188B2, “Benzamide imidazopyrazine Btk inhibitors” (MERCK SHARP & DOHME CORP., priority 2014, dated 2018)
